Results as given in article PMC3542062, “A phenyl-thiadiazolylidene-amine derivative ejects zinc from retroviral nucleocapsid zinc fingers and inactivates HIV virions” (Retrovirology, 2012).

Columns and labels:
HIV-1 IIIB [1] = assay: MT-4/MTT-assay, protection against virus-induced cytopathic effect; type: cell-based; conditions: MT-4 cells, MTT, 5 days after infection
HIV-2 ROD [2] = assay: as above; type: cell-based; conditions: MT-4 cells, MTT, 5 days after infection
SIV Mac251 = assay: as above; type: cell-based; conditions: MT-4 cells, MTT, 5 days after infection
MT-4 cells = assay: Cytotoxicity in mock-infected MT-4 cells (MTT); type: cell-based
HIV-1 IIIB [3] = assay: Anti-HIV activity in CEM cells (cytopathogenicity); type: cell-based
HIV-2 ROD [4] = assay: Anti-HIV activity in CEM cells (cytopathogenicity); type: cell-based
[5] = tested on: human T-lymphocyte (CEM) cells; assay: Cytostatic activity, CEM cell proliferation; type: cell-based
NL4.3/AMD3100R = assay: microbe, parasite or virus in culture; type: cell-based, HIV-1; conditions: NL4.3/AMD3100R; EC50 for NL4.3 wild-type as 1
HIV-1 virus particles [6] = assay: Virion-associated p24 of pre-treated, compound-cleared virus (ELISA); conditions: compound-cleared HIV-1 virus stock
HIV-1 virus particles [7] = assay: Virion-associated genomic RNA of pre-treated virus (RT-qPCR, Northern blot); conditions: compound-cleared HIV-1 virus stock, RT-qPCR or Northern blot
HIV-1 IIIB [8] = assay: Virucidal assay: virus pre-incubated with compound, diluted, titrated on MT-4 cells; conditions: virus incubated 1 h 37°C with 0.5%; no drug 1 × 10^6
HIV-2 ROD [9] = assay: as above; conditions: virus incubated 1 h 37°C with 0.5%; no drug 5.4 × 10^6
[10] = tested on: HIV-1 IIIB chronically-infected HuT-78 cells; assay: Gag processing in virions from HIV-1 IIIB chronically-infected HuT-78 cells (western blot); type: cell-based; conditions: HuT-78/IIIB cells treated 43 hours; WDO-217 50, 25 μM; ritonavir 2.7 μM; SRR-SB3 75, 15 μM
Experimental: Recently, it has been shown that this new mechanism involves acetylation of the NCp7 region of Gag, thereby blocking Gag processing.
HIV-1 IIIB virions from persistently infected HuT-78 cells treated with different concentrations of compound were analysed by gel electrophoresis and immunoblotted with antibody against capsid.
Chronically-infected HIV-1 IIIB HuT-78 cells (HuT-78/IIIB) were washed four times with PBS to remove all free virions before treatment and 2 × 10^5 cells were resuspended in 1 ml compound-containing medium for 43 hours at 37°C. Then, virions were prepared from clarified supernatants (10 min at 300 g) by centrifugation at 36670 g for 2 hours at 4°C. Protein from lysed virions were separated by SDS-PAGE on a NuPage® Novex 4-12% Bis-Tris gel (Invitrogen) and transferred on a hydrophobic polyvinylidene difluoride (PVDF) membrane (Amersham Hybond™-P). The blot was blocked overnight at 4°C by 5% dry milk powder in Western blot wash solution (WBWS; PBS + 0.5% Tween 20), washed three times for 5 minutes with WBWS and incubated with a mouse anti-HIV-1 p24 antibody (1:5000) from Abcam. The blot was then washed three times for 5 minutes with WBWS and incubated for 1 h with a goat anti-mouse IgG-HRP secondary antibody (1:2500) from Santa Cruz Biotechnology. […]

Question: With `Cc1cn([C@H]2C[C@H](N=[N+]=[N-])[C@@H](CO)O2)c(=O)[nH]c1=O` [AZT, reference compound] as the compound, how does the EC50 (HIV-1 IIIB [1]) read?
Answer: 7 ± 1 nM

Question: What about the EC50 (HIV-2 ROD [2]) of the same compound?
Answer: 5 ± 0.8 nM

Question: And the EC50 (SIV Mac251)?
Answer: 16 ± 7 nM

Question: What about the CC50 (MT-4 cells) of the same compound?
Answer: > 35000 nM

Question: What about the EC50 (HIV-1 IIIB [3]) of the same compound?
Answer: 58 ± 30 nM

Question: And the EC50 (HIV-2 ROD [4])?
Answer: 55 ± 20 nM

Question: What about the CC50 [5] of the same compound?
Answer: > 125000 nM

Question: How did the “Fold resistance of mutant strain towards the respective inhibitor” value (NL4.3/AMD3100R) turn out when `c1cc(CN2CCCNCCNCCCNCC2)ccc1CN1CCCNCCNCCCNCC1` [AMD3100, reference compound] was run?
Answer: (>100)

Question: With Triton X-100 [reference compound] as the compound, how does the “virus-associated p24 core protein after treatment” value (HIV-1 virus particles [6]) read?
Answer: no p24 core protein nor viral genomic RNA could be detected

Question: What about the “viral genomic RNA content after treatment” value (HIV-1 virus particles [7]) of the same compound?
Answer: no p24 core protein nor viral genomic RNA could be detected

Question: And the “CCID50/ml HIV-1 IIIB” value (HIV-1 IIIB [8])?
Answer: 0 CCID50/ml

Question: And the “CCID50/ml HIV-2 ROD” value (HIV-2 ROD [9])?
Answer: 0 CCID50/ml

Question: For `CC(C)c1nc(CN(C)C(=O)N[C@H](C(=O)N[C@@H](Cc2ccccc2)C[C@H](O)[C@H](Cc2ccccc2)NC(=O)OCc2cncs2)C(C)C)cs1` [ritonavir, reference compound], which “accumulation of unprocessed Gag polyprotein in progeny virus” value [10] is on record?
Answer: did effectively increase
